We go through 39 molecules from patent publication US20100029619A1, “FUSED HETEROCYCLIC COMPOUND” (TAKEDA PHARMACEUTICAL COMPANY LIMTED, priority 2006, published 2010).

Counter-ions that a name gives are not always drawn.

A word on the melting point: it is the temperature of the solid-liquid transition. Turning to `CC(C)(C)c1ccc(C(=O)Nc2cn3cc(-n4ccnc4)ccc3n2)cn1` [Example 86, 6-tert-butyl-N-[6-(1H-imidazol-1-yl)imidazo[1,2-a]pyridin-2-yl]nicotinamide], the melting point fell in the range of 242 to 245 °C. In turn, `CC(C)(C)c1ccc(C(=O)Nc2cn3nc(NC4CCCC4)ccc3n2)cc1` [Example 165, 4-tert-butyl-N-[6-(cyclopentylamino)imidazo[1,2-b]pyridazin-2-yl]benzamide] came in with a melting point of 272 to 273 °C. In the case of `CC(C)(C(=O)O)c1ccc(C(=O)Nc2cn3cc(-c4cn[nH]c4)ccc3n2)cc1` [Example 29, 2-methyl-2-(4-{[6-(1H-pyrazol-4-yl)imidazo[1,2-a]pyridin-2-yl]carbamoyl}phenyl)propanoic acid] it was 306 to 307 °C; in that of `CC(C)(C)c1ccc(C(=O)Nc2cn3nc(NCCc4ccncc4)ccc3n2)cc1` [Example 162, 4-tert-butyl-N-{6-[(2-pyridin-4-ylethyl)amino]imidazo[1,2-b]pyridazin-2-yl}benzamide], 279 °C. To `CC(C)(CCC#N)c1ccc(C(=O)Nc2cn3cc(C(F)(F)F)ccc3n2)cc1` [Example 445, 4-(3-cyano-1,1-dimethylpropyl)-N-[6-(trifluoromethyl)imidazo[1,2-a]pyridin-2-yl]benzamide] belongs 233 to 234 °C; to `CC(C)(C)c1ccc(C(=O)Nc2cn3cc(-c4cccs4)ccc3n2)cc1` [Example 107, 4-tert-butyl-N-[6-(2-thienyl)imidazo[1,2-a]pyridin-2-yl]benzamide], 273 to 275 °C. Take `CC(C)(C#N)c1ccc(C(=O)Nc2cn3cc(Cl)ccc3n2)cc1` [Example 38, N-(6-chloroimidazo[1,2-a]pyridin-2-yl)-4-(1-cyano-1-methylethyl)benzamide]: the melting point lay within 248 to 250 °C.

Regarding `CCc1nc(C)cn1-c1ccc2nc(NC(=O)c3ccc(C(C)(C)C)cc3)cn2n1` [Example 144, 4-tert-butyl-N-[6-(2-ethyl-4-methyl-1H-imidazol-1-yl)imidazo[1,2-b]pyridazin-2-yl]benzamide], the melting point was in the range of 220 to 221 °C. For `CCCNc1ccc2nc(NC(=O)c3ccc(C(C)(C)C)cc3)cn2n1` [Example 167, 4-tert-butyl-N-[6-(propylamino)imidazo[1,2-b]pyridazin-2-yl]benzamide], the melting point fell in the range of 243 to 244 °C.

Molecule `CC(C)(C)c1ccc(C(=O)Nc2cn3c(CO)cccc3n2)cc1` [Example 194, 4-tert-butyl-N-[5-(hydroxymethyl)imidazo[1,2-a]pyridin-2-yl]benzamide] came in with a melting point of 229 to 230 °C. Take `CC(C)(N)c1ccc(C(=O)Nc2cn3cc(Cl)ccc3n2)cc1` [Example 92, 4-(1-amino-1-methylethyl)-N-(6-chloroimidazo[1,2-a]pyridin-2-yl)benzamide]: the melting point is 235 to 237 °C.

Consider `O=C(Nc1cn2cc(Cl)ccc2n1)c1ccc(C2(C(=O)O)CC2)cc1` [Example 189, 1-{4-[(6-chloroimidazo[1,2-a]pyridin-2-yl)carbamoyl]phenyl}cyclopropanecarboxylic acid], for which the melting point was in the range of 330 to 331 °C. With `CC(C)(CNC(=O)Cc1cnc[nH]1)c1ccc(C(=O)Nc2cn3cc(Cl)ccc3n2)cc1` [Example 451, N-(6-chloroimidazo[1,2-a]pyridin-2-yl)-4-{2-[(1H-imidazol-5-ylacetyl)amino]-1,1-dimethylethyl}benzamide], the melting point is 270 °C (dec.). Molecule `CC(C)(CN)c1ccc(C(=O)Nc2cn3cc(Cl)ccc3n2)cc1` [Example 94, 4-(2-amino-1,1-dimethylethyl)-N-(6-chloroimidazo[1,2-a]pyridin-2-yl)benzamide] came in with a melting point of 245 to 247 °C. In the case of `O=C(Nc1cn2cc(Cl)ccc2n1)c1ccc(C2(C(=O)O)CCCCC2)cc1` [Example 192, 1-(4-{[(6-chloroimidazo[1,2-a]pyridin-2-yl)amino]carbonyl}phenyl)cyclohexanecarboxylic acid] it was 288 °C; in that of `CCCNCC(C)(C)c1ccc(C(=O)Nc2cn3cc(-n4ccnc4)ccc3n2)cc1` [Example 136, 4-[1,1-dimethyl-2-(propylamino)ethyl]-N-[6-(1H-imidazol-1-yl)imidazo[1,2-a]pyridin-2-yl]benzamide], 162 to 164 °C. To `CN(C)c1ccc2nc(NC(=O)c3ccc(C(C)(C)C)cc3)cn2n1.Cl` belongs 259 to 260 °C; to `O=C([O-])c1ccc(C(=O)Nc2cn3cc(-n4ccnc4)ccc3n2)cc1.[K+]`, greater than 400 °C. The molecule `CC(C)(C)c1ccc(C(=O)Nc2cn3nc(-n4cnc(Cl)c4Cl)ccc3n2)cc1` [Example 146, 4-tert-butyl-N-[6-(4,5-dichloro-1H-imidazol-1-yl)imidazo[1,2-b]pyridazin-2-yl]benzamide] registered a melting point of 281 to 282 °C.

Regarding `CCC(=O)NCC(C)(C)c1ccc(C(=O)Nc2cn3cc(Cl)ccc3n2)cc1` [Example 126, N-(6-chloroimidazo[1,2-a]pyridin-2-yl)-4-[1,1-dimethyl-2-(propionylamino)ethyl]benzamide], the melting point was 225 to 227 °C. In the case of `Cc1cccc2nc(NC(=O)c3ccc(C(C)(C)C(=O)O)cc3)cn12` [Example 186, 2-methyl-2-{4-[(5-methylimidazo[1,2-a]pyridin-2-yl)carbamoyl]phenyl}propanoic acid] it was 282 to 283 °C; in that of `CN1CCC(Nc2ccc3nc(NC(=O)c4ccc(C(C)(C)C)cc4)cn3n2)CC1` [Example 168, 4-tert-butyl-N-{6-[(1-methylpiperidin-4-yl)amino]imidazo[1,2-b]pyridazin-2-yl}benzamide], 275 to 277 °C; in that of `CC(C)(C)c1ccc(C(=O)Nc2cn3cc(-c4ncc[nH]4)ccc3n2)cc1` [Example 73, 4-tert-butyl-N-[6-(1H-imidazol-2-yl)imidazo[1,2-a]pyridin-2-yl]benzamide], 300 to 301 °C. To `CC(C)(C)c1ccc(C(=O)Nc2cn3cc(-c4ccc[nH]4)ccc3n2)cc1` [Example 62] belongs 279 to 280 °C; to `CC(C)(C#N)c1ccc(C(=O)Nc2cn3cc(-n4ccnc4)ccc3n2)cc1` [Example 130, 4-(1-cyano-1-methylethyl)-N-[6-(1H-imidazol-1-yl)imidazo[1,2-a]pyridin-2-yl]benzamide], 241 to 244 °C; to `CC(C)(C)c1ccc(C(=O)Nc2cn3c4c(ccc3n2)OCC4)cn1` [Example 17, 6-tert-butyl-N-(1,2-dihydrofuro[2,3-e]imidazo[1,2-a]pyridin-7-yl)nicotinamide], 246 to 248 °C.

`CC(C)(CCO)c1ccc(C(=O)Nc2cn3cc(C(F)(F)F)ccc3n2)cc1` [Example 459, 4-(3-hydroxy-1,1-dimethylpropyl)-N-[6-(trifluoromethyl)imidazo[1,2-a]pyridin-2-yl]benzamide] came in with a melting point of 152 to 153 °C.

The molecule `CC(C)(CNC(=O)Cc1cnc[nH]1)c1ccc(C(=O)Nc2cn3cc(C(F)(F)F)ccc3n2)cc1` [Example 458, 4-{2-[(1H-imidazol-5-ylacetyl)amino]-1,1-dimethylethyl}-N-[6-(trifluoromethyl)imidazo[1,2-a]pyridin-2-yl]benzamide] gave a melting point of 261 to 263 °C.

Regarding `CC(C)(CCC#N)c1ccc(C(=O)Nc2cn3c4c(ccc3n2)OCC4)cc1` [Example 441, 4-(3-cyano-1,1-dimethylpropyl)-N-(1,2-dihydrofuro[2,3-e]imidazo[1,2-a]pyridin-7-yl)benzamide], the melting point lay within 227 to 228 °C. In the case of `CC(C)(C(=O)NCCC#N)c1ccc(C(=O)Nc2cn3cc(Cl)ccc3n2)cc1` [Example 35, N-(6-chloroimidazo[1,2-a]pyridin-2-yl)-4-{2-[(2-cyanoethyl)amino]-1,1-dimethyl-2-oxoethyl}benzamide] it was 208 to 209 °C; in that of `Cc1ncc(-c2ccc3nc(NC(=O)c4ccc(C(C)(C)C)cc4)cn3n2)[nH]1` (as salt: hydrochloride) [Example 156, 4-tert-butyl-N-[6-(2-methyl-1H-imidazol-5-yl)imidazo[1,2-b]pyridazin-2-yl]benzamide hydrochloride], 295 to 297 °C (dec.). As for `CN(C)Cc1ccc2nc(NC(=O)c3ccc(C(C)(C)C)cc3)cn2c1` [Example 80, 4-tert-butyl-N-[6-(dimethylaminomethyl)imidazo[1,2-a]pyridin-2-yl]benzamide], the melting point was 236 to 237 °C. For the molecule `CC(C)(C)c1ccc(C(=O)Nc2cn3cc(-c4cnco4)ccc3n2)cn1` [Example 100, 6-tert-butyl-N-[6-(1,3-oxazol-5-yl)imidazo[1,2-a]pyridin-2-yl]nicotinamide], the melting point was in the range of 251 to 253 °C. In the case of `CC(C)(C)c1ccc(C(=O)Nc2cn3c(ccc4ccccc43)n2)cc1` [Example 50, 4-tert-butyl-N-(imidazo[1,2-a]quinolin-3-yl)benzamide], the melting point is 204 to 205 °C. Consider `CC(C)(C)c1ccc(C(=O)Nc2cn3cc(-n4cccc4)ccc3n2)cc1` [Example 64, 4-tert-butyl-N-[6-(1H-pyrrol-1-yl)-imidazo[1,2-a]pyridin-2-yl]benzamide], for which the melting point was in the range of 274 to 275 °C.

On to `CN(C)c1ccc(C(=O)Nc2cn3cc(-n4ccnc4)ccc3n2)cc1` [Example 85, 4-dimethylamino-N-[6-(1H-imidazol-1-yl)imidazo[1,2-a]pyridin-2-yl]benzamide], for which the melting point fell in the range of 247 to 248 °C.

On to `CC(C)(C(=O)O)c1ccc(C(=O)Nc2cn3cc(-c4ccsc4)ccc3n2)cc1` [Example 25, 2-methyl-2-(4-{[6-(3-thienyl)imidazo[1,2-a]pyridin-2-yl]carbamoyl}phenyl)propanoic acid], for which the melting point fell in the range of 304 to 306 °C.

`CC(C)(C(=O)NCC(O)CO)c1ccc(C(=O)Nc2cn3cc(Cl)ccc3n2)cc1` (stereo not drawn) [Example 454, N-(6-chloroimidazo[1,2-a]pyridin-2-yl)-4-{2-[(2,3-dihydroxypropyl)amino]-1,1-dimethyl-2-oxoethyl}benzamide] displayed a melting point of 198 to 199 °C. Consider `CC(C)(CO)c1ccc(C(=O)Nc2cn3cc(-n4ccnc4)ccc3n2)cc1` [Example 103, 4-(2-hydroxy-1,1-dimethylethyl)-N-[6-(1H-imidazol-1-yl)imidazo[1,2-a]pyridin-2-yl]benzamide], for which the melting point is 278 to 280 °C.
